Data taken from US20250215012A1, “IKZF2 DEGRADERS AND USES THEREOF” (REGENTS OF THE UNIVERSITY OF MICHIGAN, priority 2022, published 2025).

Tests used:
IKZF2 = IKZF2 (Homo sapiens (Human), UniProt Q96SW2+Q9UKS7); assay: IKZF2 HiBiT Assay (Jurkat-IKZF2-HiBiT cell line); type: cell-based; conditions: Jurkat-IKZF2-HiBiT cells, 24 hours; for DC50: read-out: HiBit assay degradation analysis DC50; for Dmax: read-out: HiBit assay degradation analysis Dmax
Method in brief: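 Jurkat cells carrying HiBiT-tagged IKZF2 were exposed to serially diluted compound for 24 h at 37 °C. Remaining IKZF2 was measured by Nano-Glo HiBiT lytic luminescence after 10-20 min at room temperature. Signal was normalized to DMSO, and IC50 came from a four-parameter variable-slope fit.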

[1] = target: GST-tagged wild-type human CRBN protein (Homo sapiens (Human), UniProt Q96SW2); assay: Cereblon Binding Assay (Cisbio Cereblon Binding Kit, TR-FRET); conditions: about 3 hours at room temperature
GST-tagged wild-type human CRBN protein, sequence (Q96SW2 whole entry): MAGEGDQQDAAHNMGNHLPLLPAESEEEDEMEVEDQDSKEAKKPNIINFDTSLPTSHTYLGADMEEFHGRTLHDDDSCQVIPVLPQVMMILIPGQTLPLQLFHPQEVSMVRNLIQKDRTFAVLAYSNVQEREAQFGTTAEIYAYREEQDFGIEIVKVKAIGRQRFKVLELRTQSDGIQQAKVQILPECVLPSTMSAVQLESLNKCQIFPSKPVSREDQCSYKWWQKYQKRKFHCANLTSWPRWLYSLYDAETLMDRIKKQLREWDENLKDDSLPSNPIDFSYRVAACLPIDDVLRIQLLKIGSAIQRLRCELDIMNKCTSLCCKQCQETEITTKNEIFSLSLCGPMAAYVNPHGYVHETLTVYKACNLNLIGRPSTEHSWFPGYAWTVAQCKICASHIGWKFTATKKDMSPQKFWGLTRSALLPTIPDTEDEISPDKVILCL
Protocol: (§1) The binding to cereblon (CRBN) is determined using the Cereblon Binding Kit (Cisbio, #64BDCRBNPEG) following the manufacturer's instruction. Briefly, serially diluted compounds are incubated with GST-tagged wild-type human CRBN protein, XL665-labelled Thalidomide and Europium Cryptate labelled GST antibody.
as §1, with “(CRBN) was” for “(CRBN) is”, “compounds were” for “compounds are”, “GST antibody at room temperature for about 3 hours.” for “GST antibody.”

IKZF2, sequence (Q9UKS7 whole entry): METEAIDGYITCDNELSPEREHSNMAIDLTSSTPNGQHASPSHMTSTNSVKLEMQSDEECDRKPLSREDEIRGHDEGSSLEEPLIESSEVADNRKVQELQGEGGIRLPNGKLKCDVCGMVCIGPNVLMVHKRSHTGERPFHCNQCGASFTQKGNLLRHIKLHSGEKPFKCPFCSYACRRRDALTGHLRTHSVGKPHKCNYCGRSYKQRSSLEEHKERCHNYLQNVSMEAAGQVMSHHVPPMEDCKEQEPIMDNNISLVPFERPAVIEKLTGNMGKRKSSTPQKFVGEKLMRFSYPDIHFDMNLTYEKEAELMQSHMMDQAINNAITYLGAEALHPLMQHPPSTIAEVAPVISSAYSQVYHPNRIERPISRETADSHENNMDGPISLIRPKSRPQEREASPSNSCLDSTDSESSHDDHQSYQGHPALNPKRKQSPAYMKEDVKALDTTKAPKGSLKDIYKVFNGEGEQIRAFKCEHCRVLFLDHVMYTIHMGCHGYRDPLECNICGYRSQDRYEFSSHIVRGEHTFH
IKZF2, sequence (Q96SW2 whole entry): as the sequence (Q96SW2 whole entry) above
IKZF2, sequence (Q16531 whole entry partner): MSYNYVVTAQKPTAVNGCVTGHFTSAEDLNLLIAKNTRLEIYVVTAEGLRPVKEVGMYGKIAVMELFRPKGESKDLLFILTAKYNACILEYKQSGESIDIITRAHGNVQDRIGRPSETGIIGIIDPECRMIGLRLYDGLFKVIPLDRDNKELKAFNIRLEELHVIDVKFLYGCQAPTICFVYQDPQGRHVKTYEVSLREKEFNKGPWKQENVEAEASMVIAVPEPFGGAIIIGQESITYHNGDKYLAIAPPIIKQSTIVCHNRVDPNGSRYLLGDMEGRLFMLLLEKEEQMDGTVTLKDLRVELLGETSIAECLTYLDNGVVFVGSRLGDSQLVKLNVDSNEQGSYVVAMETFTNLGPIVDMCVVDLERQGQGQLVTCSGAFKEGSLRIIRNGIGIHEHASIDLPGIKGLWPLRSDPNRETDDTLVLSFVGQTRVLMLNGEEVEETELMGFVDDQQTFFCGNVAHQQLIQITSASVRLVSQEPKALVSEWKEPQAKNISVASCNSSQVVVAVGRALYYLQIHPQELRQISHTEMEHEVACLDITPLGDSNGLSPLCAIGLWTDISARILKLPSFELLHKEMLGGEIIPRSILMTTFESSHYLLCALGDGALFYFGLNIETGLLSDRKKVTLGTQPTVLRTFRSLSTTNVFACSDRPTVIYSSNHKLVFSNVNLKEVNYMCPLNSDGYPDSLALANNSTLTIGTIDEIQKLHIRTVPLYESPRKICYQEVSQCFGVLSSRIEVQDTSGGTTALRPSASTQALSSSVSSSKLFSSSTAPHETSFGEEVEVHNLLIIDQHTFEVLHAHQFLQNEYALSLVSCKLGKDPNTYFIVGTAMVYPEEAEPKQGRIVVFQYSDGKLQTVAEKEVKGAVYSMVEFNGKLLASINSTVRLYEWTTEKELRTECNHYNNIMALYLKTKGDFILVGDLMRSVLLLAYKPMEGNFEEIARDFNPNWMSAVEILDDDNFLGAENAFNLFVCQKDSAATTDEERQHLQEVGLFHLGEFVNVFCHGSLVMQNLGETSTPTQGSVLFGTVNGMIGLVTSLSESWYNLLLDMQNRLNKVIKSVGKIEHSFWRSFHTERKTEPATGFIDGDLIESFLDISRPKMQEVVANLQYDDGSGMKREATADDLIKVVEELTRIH

SMILES	DC50 (IKZF2)	Dmax (IKZF2)	IC50 [1]
O=C1CCC(N2Cc3c(ccc4c3OCC43CCN(Cc4ccccc4)CC3)C2=O)C(=O)N1 (stereo not drawn) [Compound A8, 3-(1′-benzyl-6-oxo-6,8-dihydro-2H,7H-spiro[furo[2,3-e]isoindole-3,4′-piperidin]-7-yl)piperidine-2,6-dione]	200 to 500 nM	40 to 60%	100 to 1000 nM
CCc1ccc(CN2CCC3(CCOc4c3ccc3c4CN(C4CCC(=O)NC4=O)C3=O)CC2)cc1 (stereo not drawn) [Compound A11, 3-(1-(4-ethylbenzyl)-7′-oxo-2′,3′,7′,9′-tetrahydro-8′H-spiro[piperidine-4,4′-pyrano[2,3-e]isoindol]-8′-yl)piperidine-2,6-dione]	> 500 nM	40 to 60%	10 to 100 nM
Cc1ccc(CN2CCC3(CCOc4c3ccc3c4CN(C4CCC(=O)NC4=O)C3=O)CC2)cc1 (stereo not drawn) [Compound A12, 3-(1-(4-methylbenzyl)-7′-oxo-2′,3′,7′,9′-tetrahydro-8′H-spiro[piperidine-4,4′-pyrano[2,3-e]isoindol]-8′-yl)piperidine-2,6-dione]	> 500 nM	< 40%	10 to 100 nM
Cc1ccc(CN2CCC3(CC2)COc2c3ccc3c2CN(C2CCC(=O)NC2=O)C3=O)cc1 (stereo not drawn) [Compound A15, 3-(1′-(4-methylbenzyl)-6-oxo-6,8-dihydro-2H,7H-spiro[furo[2,3-e]isoindole-3,4′-piperidin]-7-yl)piperidine-2,6-dione]	200 to 500 nM	40 to 60%	100 to 1000 nM
O=C1CCC(N2Cc3c(ccc4c3OCC43CCN(Cc4cccc5ccccc45)CC3)C2=O)C(=O)N1 (stereo not drawn) [Compound A27, 3-(1′-(naphthalen-1-ylmethyl)-6-oxo-6,8-dihydro-2H,7H-spiro[furo[2,3-e]isoindole-3,4′-piperidin]-7-yl)piperidine-2,6-dione]	< 50 nM	> 80%	100 to 1000 nM
O=C1CCC(N2Cc3c(ccc4c3OCC43CCN(Cc4cccc(F)c4)CC3)C2=O)C(=O)N1 (stereo not drawn) [Compound A29, 3-(1′-(3-fluorobenzyl)-6-oxo-6,8-dihydro-2H,7H-spiro[furo[2,3-e]isoindole-3,4′-piperidin]-7-yl)piperidine-2,6-dione]	> 500 nM	40 to 60%	> 1000 nM
Cc1cc(C)cc(CN2CCC3(CC2)COc2c3ccc3c2CN(C2CCC(=O)NC2=O)C3=O)c1 (stereo not drawn) [Compound A31, 3-(1′-(3,5-dimethylbenzyl)-6-oxo-6,8-dihydro-2H,7H-spiro[furo[2,3-e]isoindole-3,4′-piperidin]-7-yl)piperidine-2,6-dione]	200 to 500 nM	60 to 80%	100 to 1000 nM
O=C1CCC(N2Cc3c(ccc4c3OCC43CCN(Cc4cccc5cn[nH]c45)CC3)C2=O)C(=O)N1 (stereo not drawn) [Compound A52, 3-(1′-((1H-indazol-7-yl)methyl)-6-oxo-6,8-dihydro-2H,7H-spiro[furo[2,3-e]isoindole-3,4′-piperidin]-7-yl)piperidine-2,6-dione]	< 50 nM	60 to 80%	10 to 100 nM
O=C1CCC(N2Cc3c(ccc4c3OCC43CCN(Cc4ccc5cn[nH]c5c4)CC3)C2=O)C(=O)N1 (stereo not drawn) [Compound A56, 3-(1′-((1H-indazol-6-yl)methyl)-6-oxo-6,8-dihydro-2H,7H-spiro[furo[2,3-e]isoindole-3,4′-piperidin]-7-yl)piperidine-2,6-dione]	< 50 nM	60 to 80%	100 to 1000 nM
Cn1cc2ccc(CN3CCC4(CC3)COc3c4ccc4c3CN(C3CCC(=O)NC3=O)C4=O)cc2n1 (stereo not drawn) [Compound A69, 3-(1′-((2-methyl-2H-indazol-6-yl)methyl)-6-oxo-6,8-dihydro-2H,7H-spiro[furo[2,3-e]isoindole-3,4′-piperidin]-7-yl)piperidine-2,6-dione]	< 50 nM	60 to 80%	100 to 1000 nM
O=C1CCC(N2Cc3c(ccc4c3OCC43CCN(Cc4cccc5[nH]ccc45)CC3)C2=O)C(=O)N1 (stereo not drawn) [Compound A87, 3-(1′-((1H-indol-4-yl)methyl)-6-oxo-6,8-dihydro-2H,7H-spiro[furo[2,3-e]isoindole-3,4′-piperidin]-7-yl)piperidine-2,6-dione]	< 50 nM	> 80%	100 to 1000 nM
O=C1CCC(N2Cc3c(ccc4c3OCC43CCN(Cc4cccc(CO)c4)CC3)C2=O)C(=O)N1 (stereo not drawn) [Compound A98, 3-(1′-(3-(hydroxymethyl)benzyl)-6-oxo-6,8-dihydro-2H,7H-spiro[furo[2,3-e]isoindole-3,4′-piperidin]-7-yl)piperidine-2,6-dione]	50 to 200 nM	60 to 80%	100 to 1000 nM
Cn1cc(-c2cccc(CN3CCC4(CC3)COc3c4ccc4c3CN(C3CCC(=O)NC3=O)C4=O)c2)cn1 (stereo not drawn) [Compound A105, 3-(1′-(3-(1-methyl-1H-pyrazol-4-yl)benzyl)-6-oxo-6,8-dihydro-2H,7H-spiro[furo[2,3-e]isoindole-3,4′-piperidin]-7-yl)piperidine-2,6-dione]	< 50 nM	60 to 80%	100 to 1000 nM
O=C1CCC(N2Cc3c(ccc4c3OCC43CCN(Cc4ccc5ccoc5c4)CC3)C2=O)C(=O)N1 (stereo not drawn) [Compound A116, 3-(1′-(benzofuran-6-ylmethyl)-6-oxo-6,8-dihydro-2H,7H-spiro[furo[2,3-e]isoindole-3,4′-piperidin]-7-yl)piperidine-2,6-dione]	< 50 nM	60 to 80%	100 to 1000 nM
O=C1CCC(N2Cc3c(ccc4c3OCC43CCN(Cc4ccc5c(c4)C(=O)NC5)CC3)C2=O)C(=O)N1 (stereo not drawn) [Compound A122, 3-(6-oxo-1′-((3-oxoisoindolin-5-yl)methyl)-6,8-dihydro-2H,7H-spiro[furo[2,3-e]isoindole-3,4′-piperidin]-7-yl)piperidine-2,6-dione]	50 to 200 nM	60 to 80%	100 to 1000 nM
O=C1CCC(N2Cc3c(ccc4c3OCC43CCN(Cc4cccc(-n5cncn5)c4)CC3)C2=O)C(=O)N1 (stereo not drawn) [Compound A124, 3-(1′-(3-(1H-1,2,4-triazol-1-yl)benzyl)-6-oxo-6,8-dihydro-2H,7H-spiro[furo[2,3-e]isoindole-3,4′-piperidin]-7-yl)piperidine-2,6-dione]	200 to 500 nM	40 to 60%	100 to 1000 nM
O=C1CCC(N2Cc3c(ccc4c3OCC43CCN(Cc4cccc(-c5cnco5)c4)CC3)C2=O)C(=O)N1 (stereo not drawn) [Compound A125, 3-(1′-(3-(oxazol-5-yl)benzyl)-6-oxo-6,8-dihydro-2H,7H-spiro[furo[2,3-e]isoindole-3,4′-piperidin]-7-yl)piperidine-2,6-dione]	< 50 nM	60 to 80%	100 to 1000 nM
O=C1CCC(N2Cc3c(ccc4c3OCC43CCN(Cc4cccc(Cn5cccn5)c4)CC3)C2=O)C(=O)N1 (stereo not drawn) [Compound A126, 3-(1′-(3-((1H-pyrazol-1-yl)methyl)benzyl)-6-oxo-6,8-dihydro-2H,7H-spiro[furo[2,3-e]isoindole-3,4′-piperidin]-7-yl)piperidine-2,6-dione]	200 to 500 nM	40 to 60%	100 to 1000 nM
O=C1CCC(N2Cc3c(ccc4c3OCC43CCN(Cc4cc(Br)cc5[nH]ncc45)CC3)C2=O)C(=O)N1 (stereo not drawn) [Compound A127, 3-(1′-((6-bromo-1H-indazol-4-yl)methyl)-6-oxo-6,8-dihydro-2H,7H-spiro[furo[2,3-e]isoindole-3,4′-piperidin]-7-yl)piperidine-2,6-dione]	< 50 nM	40 to 60%	100 to 1000 nM
O=C1CCC(N2Cc3c(ccc4c3OCC43CCN(Cc4cc(Cl)cc5[nH]ncc45)CC3)C2=O)C(=O)N1 (stereo not drawn) [Compound A128, 3-(1′-((6-chloro-1H-indazol-4-yl)methyl)-6-oxo-6,8-dihydro-2H,7H-spiro[furo[2,3-e]isoindole-3,4′-piperidin]-7-yl)piperidine-2,6-dione]	50 to 200 nM	40 to 60%	100 to 1000 nM
O=C1CCC(N2Cc3c(ccc4c3OCC43CCN(Cc4ccc5cc[nH]c5c4)CC3)C2=O)C(=O)N1 (stereo not drawn) [Compound A129, 3-(1′-((1H-indol-6-yl)methyl)-6-oxo-6,8-dihydro-2H,7H-spiro[furo[2,3-e]isoindole-3,4′-piperidin]-7-yl)piperidine-2,6-dione]	< 50 nM	60 to 80%	10 to 100 nM
Cn1ccc2ccc(CN3CCC4(CC3)COc3c4ccc4c3CN(C3CCC(=O)NC3=O)C4=O)cc21 (stereo not drawn) [Compound A130, 3-(1′-((1-methyl-1H-indol-6-yl)methyl)-6-oxo-6,8-dihydro-2H,7H-spiro[furo[2,3-e]isoindole-3,4′-piperidin]-7-yl)piperidine-2,6-dione]	< 50 nM	60 to 80%	100 to 1000 nM
O=C1CCC(N2Cc3c(ccc4c3OCC43CCN(Cc4ccc5c(c4)NC(=O)C5)CC3)C2=O)C(=O)N1 (stereo not drawn) [Compound A131, 3-(6-oxo-1′-((2-oxoindolin-6-yl)methyl)-6,8-dihydro-2H,7H-spiro[furo[2,3-e]isoindole-3,4′-piperidin]-7-yl)piperidine-2,6-dione]	50 to 200 nM	60 to 80%	100 to 1000 nM
O=C1CCC(N2Cc3c(ccc4c3OCC43CCN(Cc4cccc(-c5cccnc5)c4)CC3)C2=O)C(=O)N1 (stereo not drawn) [Compound A132, 3-(6-oxo-1′-(3-(pyridin-3-yl)benzyl)-6,8-dihydro-2H,7H-spiro[furo[2,3-e]isoindole-3,4′-piperidin]-7-yl)piperidine-2,6-dione]	< 50 nM	60 to 80%	100 to 1000 nM
